Results: patent US8580738B2, “Methods for treatment of reperfusion injury and other cardiac conditions” (The Board of Regents of the University of Texas System, priority 2007, dated 2013)
“Also recorded” adds a separate entry of the source. Where two headings read alike, the source gives them in different places. Where no end group is shown, it is not given here.

Key:
[1] = test system: rat myocardial ischemia-reperfusion model; test: Rat myocardial ischemia-reperfusion model (30-min LAD occlusion, 4-hr reperfusion), infarct size; format: in vivo; conditions: for infarct size: 30-min ischemia, 4-hr reperfusion, drug i.v. before ischemia, saline control 25±3%
Method: Rat MI model is created by 30-min LAD ligation followed by 4-h reperfusion.
(T+C)H: with high dose of terbutaline 1 mg/kg.
Experimental Myocardial Ischemia-Reperfusion Model. The rat myocardial ischemia-reperfusion model will be used (Birnbaum et al., 2005; Huang et al., 2007). This model consists of 30 min coronary artery occlusion followed by 4-hr reperfusion.
Saline (0.5 ml) will be infused to rats serving as control.
Each antagonist or their combination will be infused 20-min prior to DPDPE infusion. Arterial blood pressure and heart rate will be monitored continuously throughout the experiments.

[2] = test system: calcitonin-gene related peptide mRNA in intrinsic cardiac adrenergic cells; test: CGRP mRNA regulation in isolated rat intrinsic cardiac adrenergic (ICA) cells, RT-PCR / quantitative real-time PCR; format: cell-based; conditions: for increase in calcitonin-gene related peptide mRNA (quantitative real-time PCR): isolated rat ICA cells, 60-min treatment, DPDPE 100 nM or epinephrine 1 μmol; for increase in calcitonin-gene related peptide mRNA (quantitative real-time PCR) / effect on calcitonin-gene related peptide mRNA levels: FIG. 3; for effect on calcitonin-gene related peptide mRNA levels: rat ICA cells
Method: 0-h represents immediately after 60-min drug treatment. 6-h and 24-h represent 6 and 24 hrs after 60 min drug treatment, respectively. Epi: epinephrine. UT: DPDPE-untreated.
RNA load is verified by the amount of GAPDH. Bar graphs are data normalized to their respective GAPDH mRNA.

[3] = cited from earlier work
[4] = test system: left ventricular systolic function; test: Left ventricular function by echocardiography after intravenous DPDPE; format: in vivo, rat
From the text: The measurements were obtained from left ventricular short-axis view using echocardiography.
Intravenous infusion of δ-opioid agonist DPDPE to rats causes sustained increase in left ventricular systolic function as reflected by increased left ventricular fractional shortening and ejection fraction (FIG. 10). The fractional shortening and ejection fraction are two clinical parameters used for evaluating left ventricular function assayed by echocardiograph. This positive inotropic effect elicited by DPDPE sustains for more than 40 minutes following drug injection. Augmenting cardiac contractile function by δ-opioid receptor agonist has not been reported. δ-opioid agonists can augment heart performance and can be beneficial for clinical treatment of congestive heart failure.

[5] = DPDPE 100 μg/kg i.v., rats n=3, LV short-axis echocardiography, FIG. 10

Q: Which results are given for “CGRP8-37: calcitonin-gene related peptide receptor antagonist (VTHRLAGLLSRSGGVVKNNFVPTNVGSKAF; ends and bridges not checked; UniProt P06881 90-119, looked up, fragment)”?
A: infarct size ([1]; FIG. 6): 35±8%; increase in infarct size compared to saline control ([1]; CGRP8-37 i.v. 30 min before onset of myocardial ischemia, FIG. 6): 38%

Q: What does the source list for `Cc1ccc(OCC(O)C(C)NC(C)C)c2c1CCC2` (stereo not drawn) [ICI-118551]?
A: effect on epinephrine-induced CGRP gene upregulation ([2]; ICA cells, epinephrine in the presence of ICI-118551, FIG. 5): epinephrine failed to increase; also recorded: attenuated; effect on epinephrine-induced CGRP mRNA regulation ([2]; ICI at 50 μmol/L, ICA cells, FIG. 5): completely eliminated

Q: Which “incidence of doxorubicin-induced cardiomyopathy” value ([3]; dose of 501-550 mg/m^2 body surface area) does the source give for `COc1cccc2c1C(=O)c1c(O)c3c(c(O)c1C2=O)C[C@@](O)(C(=O)CO)C[C@@H]3O[C@H]1C[C@H](N)[C@H](O)[C@H](C)O1` [doxorubicin] here?
A: > 5%

Q: What about the “incidence of doxorubicin-induced cardiomyopathy” value ([3]; dose over 550 mg/m^2) of the same compound?
A: 30%

Q: What does the source list for (D-Pen^2, D-Pen^5)-enkephalin [DPDPE]?
A: increase in ejection fraction [4, 5]: 23%; increase in fractional shortening [4, 5]: 54%; duration of positive inotropic effect following drug injection ([4]; i.v. DPDPE, rats): more than 40 minutes; increase in calcitonin-gene related peptide mRNA (quantitative real-time PCR) [2]: 2 fold; effect on calcitonin-gene related peptide mRNA levels [2]: modestly increases; infarct size ([1]; FIG. 6): 11±2%; reduction of infarct size compared to control group ([1]; δ-opioid agonist i.v. before ischemia, FIG. 6): 57%

Q: For `CC(C)(C)NCC(O)c1cc(O)cc(O)c1` (stereo not drawn) [terbutaline], which “effect on infarct size, drug delivered before LAD ligation / acute MI” value ([1]; i.v. infusion before LAD ligation, terbutaline 100 μg/kg, CGRP 30 ng/kg or combination, FIG. 9) is on record?
A: no significant infarct-size-reduction

Q: For `CNC[C@H](O)c1ccc(O)c(O)c1` [epinephrine], which “increase in calcitonin-gene related peptide mRNA compared to untreated (UT) group” value ([2]; ICA cells treated with epinephrine for 1 hr, FIG. 5) is on record?
A: 6 fold

Q: What about the “duration of CGRP gene regulatory effect” value ([2]; following a brief 60-min epinephrine treatment) of the same compound?
A: 24 h

Q: And the “increase in calcitonin-gene related peptide mRNA (quantitative real-time PCR)” value [2]?
A: 14 fold

Q: What about the “effect on calcitonin-gene related peptide mRNA levels” value [2] of the same compound?
A: increases
